Assay results reported in US20060025406A1, “Modulators of hepatocyte growth factor/c- Met activity” (Angion Biomedica Corporation, priority 2004, published 2006).

Columns and labels:
[1] = test system: A549 human lung carcinoma cells; experiment: MTT assay, cell viability; format: cell-based; conditions: 72 hours continuous exposure
Protocol: To investigate the effect of c-Met antagonist compound A on inhibiting the growth of A549 human lung carcinoma cells in vitro, an MTT assay was carried out to determine cell viability. Cells were plated in 96-well plates at 5000 cells/well in complete medium, in the absence of drug. After 24 hours to allow for cell attachment, cells were incubated for 72 hours with the tested compounds (5 different concentrations) or vehicle. Cells were then exposed to MTT for 4 hours, and absorbance was measured at a wavelength of […].

HUVEC cells = experiment: HGF/SF-induced HUVEC cell proliferation ([3H]-thymidine incorporation); format: cell-based, human; conditions: HGF/SF 25 ng/ml, overnight, FIG. 1A
Protocol: Compounds of the invention were tested for HGF/SF inhibitory activity in HGF/SF-induced HUVEC cell proliferation in vitro. Briefly, HUVEC cells were seeded into 48-well plates and serum starved for 2 hours in medium containing 1% BSA, and then treated with test compounds in multiple concentrations in the presence or absence of HGF/SF (25 ng/ml, R&D Systems) overnight. This experiment also included negative (vehicle alone) and positive (HGF/SF alone) controls. Cell proliferation was measured by the incorporation of [^3H]-thymidine and counted using Beta scintillation counter.

[2] = test system: A549 human lung carcinoma cells; experiment: A549 subcutaneous xenograft; format: in vivo, Balb C nude mice; conditions: 5 mg/kg i.p. daily for 3 weeks
Protocol: To investigate the effect of c-Met antagonist compound A on inhibiting the growth of A549 human lung carcinoma cells in vivo, 2×10^6 cells of A549 were injected subcutaneously into the right hind flank of male Balb C nude mice. Tumors were allowed to develop for 12 days and then animals were treated with compound A at 5 mg/kg i.p. daily for 3 weeks. Tumor size measurements were made twice weekly and volumes calculated ((length×width^2)/2 (mm^3)) Final weight of excised tumors was measured at the end of the 3-week treatment period (0.78 g for control vs. 0.05 g for compound A treated).

SMILES | IC50 [1] [µM] | inhibition of HGF/SF stimulation of endothelial cell proliferation (HUVEC cells) | tumor volume and weight [2] | final weight of excised tumors ([2]; control 0.78 g) [g]
OCc1ccccc1Sc1ccccc1CNc1nc(NC2CCCC2)c2ccccc2n1 [compound A] | 2.9 | inhibited HGF/SF stimulation of endothelial cell proliferation | significantly reduced tumor volume and weight | 0.05
CC(C)=CC1C(CNc2nc(Nc3ccccc3C(C)C)c3ccccc3n2)C1(C)C (centres unmarked) [B] | – | inhibited HGF/SF stimulation of endothelial cell proliferation | – | –
